The values below come from publication doi:10.1101/2022.11.06.515312v1 (biorxiv, 2022).

Common to all, as to details: 5-50 uM substrate, 1 h, 0.333 mM MES pH 5.7, 2% galactose
One series concerns the target T1, OsLAT1 (Oryza sativa, UniProt Q6Z8D0).
T1 sequence (Q6Z8D0 1-531): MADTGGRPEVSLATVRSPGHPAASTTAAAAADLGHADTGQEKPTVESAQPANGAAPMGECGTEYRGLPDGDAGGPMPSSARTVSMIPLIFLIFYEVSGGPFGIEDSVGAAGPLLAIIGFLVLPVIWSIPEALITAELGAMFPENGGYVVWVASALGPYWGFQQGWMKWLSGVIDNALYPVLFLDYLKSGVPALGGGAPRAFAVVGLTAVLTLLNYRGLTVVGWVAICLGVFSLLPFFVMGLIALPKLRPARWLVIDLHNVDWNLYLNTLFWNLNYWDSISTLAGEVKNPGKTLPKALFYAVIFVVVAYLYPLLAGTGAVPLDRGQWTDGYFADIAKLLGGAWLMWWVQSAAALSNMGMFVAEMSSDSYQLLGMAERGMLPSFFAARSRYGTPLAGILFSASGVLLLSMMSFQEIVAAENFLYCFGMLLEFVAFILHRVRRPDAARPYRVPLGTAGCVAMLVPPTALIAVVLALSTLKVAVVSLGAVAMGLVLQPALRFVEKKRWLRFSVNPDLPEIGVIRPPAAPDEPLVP
The series can be described thus: uptake into yeast, UPLC-MS/MS, vector control subtracted.

For the next series, the system named is OsLAT5. The description is as above. It counts as cell-based, Oryza sativa subsp. japonica.
Substrate in series [1]: c1cc[n+]2c(c1)-c1cccc[n+]1CC2
Briefly: cells, lysate or membranes.

The Km is the substrate concentration at which the rate is half of its maximum.

For the molecule `C[n+]1ccc(-c2cc[n+](C)cc2)cc1` [paraquat], the Michaelis-Menten constant (Km) on OsLAT1 came to 40.8 ± 9.61 µM; in the series on OsLAT5, 11.7 ± 4.04 µM.

Take `c1cc[n+]2c(c1)-c1cccc[n+]1CC2` [diquat, 1,10-ethylene-2,20-bipyridinium dibromide]: in the series on OsLAT5, the Km was determined as 13.8 ± 3.24 µM.

B1: OsLAT1 (Oryza sativa Japonica Group) (protein)
chain: MADTGGRPEVSLATVRSPGHPAASTTAAAAADLGHADTGQEKPTVESAQPANGAAPMGECGTEYRGLPDGDAGGPMPSSARTVSMIPLIFLIFYEVSGGPFGIEDSVGAAGPLLAIIGFLVLPVIWSIPEALITAELGAMFPENGGYVVWVASALGPYWGFQQGWMKWLSGVIDNALYPVLFLDYLKSGVPALGGGAPRAFAVVGLTAVLTLLNYRGLTVVGWVAICLGVFSLLPFFVMGLIALPKLRPARWLVIDLHNVDWNLYLNTLFWNLNYWDSISTLAGEVKNPGKTLPKALFYAVIFVVVAYLYPLLAGTGAVPLDRGQWTDGYFADIAKLLGGAWLMWWVQSAAALSNMGMFVAEMSSDSYQLLGMAERGMLPSFFAARSRYGTPLAGILFSASGVLLLSMMSFQEIVAAENFLYCFGMLLEFVAFILHRVRRPDAARPYRVPLGTAGCVAMLVPPTALIAVVLALSTLKVAVVSLGAVAMGLVLQPALRFVEKKRWLRFSVNPDLPEIGVIRPPAAPDEPLVP
Turning to B1, the Km in series [1] amounted to 23.98 ± 6.77 µM.
